This is an account of results in patent US11471458B2, “Diacylglycerol acyl transferase 2 inhibitor” (Pfizer Inc., priority 2019, dated 2022).

Series [1] can be described thus: Determination of pKa (capillary electrophoresis, Analiza, Inc.). As to conditions: mean, read-out: Basic pKa (most basic pKa). The format is physicochemical.
A further series concerns the target human DGAT2 (hDGAT2) (Homo sapiens (Human), UniProt Q96PD7). Kind of series: In vitro DGAT2 assay, determination of IC50 values for DGAT2 inhibitors. The series is classed as biochemical. Particulars: hDGAT2 membrane fraction; geometric mean. The protocol: Recombinant baculovirus for the FLAG-tagged hDGAT2 was generated in SF9 insect cells using Bac-to-Bac baculovirus expression system (Invitrogen) according to the manufacturer's protocol. For the expression of hDGAT2, SF9 cells (20 L) grown in Sf900II media were infected with hDGAT2 baculovirus at a multiplicity of infection of 1 in a Wave Bioreactor System 20/50P wave bag (GE Healthcare). After 40 hours of infection, the cells were then harvested by centrifugation at 5,000×g. The cell pellets were washed by resuspending in phosphate buffered saline (PBS) and collected by centrifugation at 5,000×g. The cell paste was flash frozen in liquid N2 and stored at −80° C. until needed. All operations below were at 4° C. unless otherwise noted. The cells were resuspended in lysis buffer (50 mM Tris-HCl, pH 8.0, 250 mM sucrose) including 1 mM ethylenediaminetetraacetic acid (EDTA) and the complete protease inhibitor cocktail (Roche Diagnostics) at a ratio of 3 mL buffer per 1 g cell paste. The cells were lysed by dounce homogenizer. The cell debris was removed by centrifugation at 1,000×g for 20 min, and the supernatant was centrifuged at 100,000×g for 1 hour. The resulting pellet was rinsed three times by filling ultracentrifuge tubes to the top with ice cold PBS before decanting. The washed pellet was resuspended with gentle stirring for 1 hour in lysis buffer containing 8 mM 3-[(3-cholamidopropyl)dimethylammonio]-1-propanesulfonate (CHAPS) at a ratio of 1 mL buffer per 1 g of original cell paste and centrifuged again at 100,000×g for 1 hour. The resulting supernatant was aliquotted, flash frozen in liquid N2, and stored at −80° C. until use.
To 1 μL of compounds dissolved in 100% DMSO and spotted at the bottom of each well, 5 μL of 0.04% bovine serum albumin (BSA) (fatty acid free, Sigma Aldrich) was added and the mixture was incubated at room temperature for 15 minutes. hDGAT2 membrane fractions were diluted in 100 mM Hepes-NaOH, pH 7.4, 20 mM MgCl2 containing 200 nM methyl arachidonyl fluorophosphonate (Cayman Chemical; dried from ethyl acetate stock solution under argon gas and dissolved in DMSO as 5 mM stock). 10 μL of this enzyme working solution was added to the plates and incubation continued for 2 hours at room temperature. […] Plates were centrifuged at 2,000×g for 1 minute in an Allegra 6R Centrifuge (Beckman Coulter) and then were sealed again with fresh covers before reading in a 1450 Microbeta Wallac Trilux Scintillation Counter (Perkin Elmer). DGAT2 activity was measured by quantifying the generated product [^14C]tridecanoylglycerol in the upper organic phase. […]

Series [2] can be described thus: Intrinsic clearance in human liver microsomes. The series is classed as in vitro ADME. Particulars: human, pooled human liver microsomes (50 donors), pH 7.4, human liver microsome assay; 1 μM test compound, 0.806 mg/mL protein, NADPH, pH 7.4, 37° C.; mean +/− STD Dev; read-out: CLint (μL/min/mg) (+/− STD Dev). As to the method:
The incubations were conducted at 37° C. […] (Sorvall RC 3C Plus, Thermo Scientific, Waltham, Mass.).
Background: Microsomes from liver hold many membrane-bound enzymes, among them those of drug oxidation.

Series [3] deals with DGAT2 in human hepatocytes (Homo sapiens (Human), UniProt Q96PD7). Kind of series: Determination of IC50 values for DGAT2 inhibitors in human hepatocytes. The format is cell-based. Particulars: cryopreserved human hepatocytes, DGAT1 inhibitor present; geometric mean. The protocol: For evaluation of the effects of DGAT2 inhibitors in a cell-based setting, cryopreserved human hepatocytes (Lot DOO, Celsis, Baltimore, Md.) were thawed and plated onto type I collagen-coated plates according to the manufacturer's instructions. After 18 hours overnight recovery period, the cells were overlayed with media containing 250 μg/mL Geltrex Basement Membrane Matrix (Thermo Fisher). The following day, media was aspirated and replaced with serum-free Williams Media E (Thermo Fisher) containing 400 μM sodium dodecanoate (Sigma-Aldrich, St. Louis, Mo.) and 2 mM GlutaMAX (Thermo Fisher). […] DGAT2 inhibitors were then added to the desired final concentration. After a 15 minute preincubation, 0.2 μCi [^14C(U)]-glycerol (Perkin Elmer) was added to each well followed by a 3 hour incubation. At this point the media was removed, and the cells lysed via orbital shaking in isopropyl alcohol: tetrahydrofuran (9:1) for 15 minutes prior to centrifugation at 3000 rpm for 10 minutes. Radiolabeled lipids were resolved using a solvent system by thin layer chromatography with the solvent consisting of hexanes:diethyl ether:glacial acetic acid (75:23:2, v/v/v). […] The half maximal inhibitory concentrations (IC50 values) were determined by nonlinear regression analysis of the % inhibition dose response curve using GraphPad Prism (GraphPad Software, Inc., La Jolla, Calif.). […]

A short description of series [4]: High throughput determination of intrinsic clearance in human hepatocytes. The series is classed as in vitro ADME. Particulars: human, pooled cryopreserved human hepatocytes (10 donors), high throughput human hepatocyte assay; 0.5 million cells/mL, 1 μM test compound, 37° C.; mean +/− Std Dev; read-out: CLint (μL/min/10^6 cells) (+/− Std Dev). The protocol: The incubation was carried out at 37° C. […] The samples were centrifuged (Eppendorf, Hauppauge, N.Y.) at 3000 rpm for 5 min at 4° C.

The nature of series [5]: Thermodynamic solubility in various biorelevant media. The series is classed as physicochemical. As to conditions: PBS, pH 6.8; crystalline solid. As to the method:
The solubility of active pharmaceutical ingredients is an important characteristic in determining biological performance and ease of formulation during drug development, with high solubility being preferred (Klein, S. 2010, The AAPS Journal, 12, 397-406; Di, L., et al 2012, Drug Disc. Today, 17. 486-495). A test sample of crystalline solid (˜7 mg) was combined in a vial with 1 mL of the relevant buffer solution and the mixture vortexed to combine. If the solid dissolved completely, additional solid was added with vortexing until a saturated solution was obtained. The saturated solution/solid mixture was capped and subjected to temperature cycling as follows: 1 min at 25° C., 8 h at 40° C., 5 h at 15° C. and 12 h at 25° C. The mixture was filtered in a centrifugal filtration device (0.22 μm PVDF filter, MilliporeSigma, Milwaukee, Wis.) at 13,000 rpm and the concentration of the test compound in the filtrate was determined by HPLC/UPLC with reference to a three point standard curve. Phosphate buffered saline (PBS, pH 6.8, 50 mM phosphate buffer, 250 mM NaCl). Simulated gastric fluid (SGN pH 1.2, USP recipe). Fasted state simulated intestinal fluid (FaSSIF, 3 mM sodium taurocholate, 0.75 mM phospholipid from soybean lecithin, 50 mM phosphate buffer, ionic strength adjusted to 250 mM with NaCl, pH 6.8) and fed state simulated intestinal fluid (FeSSIF, 15 mM sodium taurocholate, 3.75 mM phospholipid from soybean lecithin, 144 mM acetic acid, 50 mM phosphate buffer, ionic strength adjusted to 250 mM with NaCl, pH 6.8).

Series [6] relates to Western diet fed Sprague-Dawley rats. Kind of series: Rat western diet model: in vivo effects on plasma and hepatic triglyceride levels. Particulars: compared with chow-fed vehicle animals. From the text: The rat western diet model was utilized to assess the effects of DGAT2 inhibitor treatment on plasma triglyceride production and hepatic triglyceride content in vivo. Male Sprague-Dawley rats were housed under standard laboratory conditions on a 12-hour light, 12-hour dark cycle (lights on at 06:00). Two weeks prior to study start animals were placed on a high-fat, high sucrose, high-cholesterol diet (D12079b, provided by Research Diets, New Brunswick, N.J.). This diet provides ˜43% of kilocalories from carbohydrate and ˜41% of kilocalories from fat. Example 4 was administered orally as a solution (10 mL/kg dosing volume) in 0.5% methylcellulose in deionized water, pH 7.0-7.5 (methylcellulose was obtained from Sigma-Aldrich, St. Louis, Mo.). […] Plasma TG levels were determined using a Roche Hitachi Chemistry analyzer according to the manufacturer's instructions (Roche Diagnostics Corporation, Indianapolis, Ind.) and data was analyzed using GraphPad Prism (GraphPad Software, Inc., La Jolla, Calif.). […] The triglyceride assay was performed through absorbance and reported as milligrams per deciliter. […]
FIG. 4 plots the multiple dose effects of Example 4 on Plasma Triglyceride in Western Diet Fed Sprague-Dawley Rats where plasma triglyceride levels were determined from blood drawn from the lateral tail vein 2-hours following the final dose of Example 4. […]

As a reminder, the pKa is the negative logarithm of the acid dissociation constant. Usually IC50 stands for the concentration that inhibits the measured activity by half. High values mean weaker potency, low ones greater potency. One may read the Solubility as how much of the substance goes into solution per volume. A low value points to a poorly soluble substance.

≈ marks a conversion by molar mass, not a printed value. Where a name gives a salt, the structure may show the parent alone.

human DGAT2 (hDGAT2), sequence (Q96PD7 whole entry): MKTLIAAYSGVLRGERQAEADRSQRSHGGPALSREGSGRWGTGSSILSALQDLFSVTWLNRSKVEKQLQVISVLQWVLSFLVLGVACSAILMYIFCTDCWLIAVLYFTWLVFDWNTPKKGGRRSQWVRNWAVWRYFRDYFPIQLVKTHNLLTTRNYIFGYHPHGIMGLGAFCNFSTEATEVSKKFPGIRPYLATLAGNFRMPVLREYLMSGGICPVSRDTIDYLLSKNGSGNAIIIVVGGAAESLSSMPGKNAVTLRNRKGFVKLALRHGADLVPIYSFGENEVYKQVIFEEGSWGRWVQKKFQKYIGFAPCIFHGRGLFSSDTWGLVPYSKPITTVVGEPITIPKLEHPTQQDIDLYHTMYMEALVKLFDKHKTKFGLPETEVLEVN
DGAT2 in human hepatocytes, sequence (Q96PD7 whole entry): as above

For the compound `CCOc1cccnc1Oc1cncc(-c2ncc(C(=O)N[C@@H]3CNCC[C@@H]3F)cn2)c1` [Example 3, 2-{5-[(3-Ethoxypyridin-2-yl)oxy]pyridin-3-yl}-N-[(3R,4S)-4-fluoropiperidin-3-yl]pyrimidine-5-carboxamide, bis(trifluoroacetate) Salt], the pKa in series [1] turned out to be 8.1. Further, the IC50 worked out at 40 nM on human DGAT2 (hDGAT2) and 23 nM in series [3]. Besides, the microsomal CLint at 1 μM in series [2] is less than 7 µL/min/mg. Also, in series [4], the hepatocyte CLint at 1 μM is less than 1.9 µL/min/1e6 cells.

With `CCOc1cccnc1Oc1cncc(-c2ncc(C(=O)N[C@@H]3CNC[C@@H](F)C3)cn2)c1` [Example 4, 2-{5-[(3-Ethoxypyridin-2-yl)oxy]pyridin-3-yl}-N-[(3S,5S)-5-fluoropiperidin-3-yl]pyrimidine-5-carboxamide], in series [5], the Solubility is 580 µg/mL (≈ 1320 µM). For the same compound, the “circulating triglyceride response, resulting levels” value in series [6] is “approached those of the chow-fed vehicle animals”.
